Columns and labels:
[1] = system: ascaris-immunized mouse splenocytes; test: Ascaris-immunized mouse splenocytes (in vitro): DNP-ascaris stimulated growth, MTT; format: cell-based, Balb/c mice; settings: Splenocyte, 72 h, 25 µM test drug, 12.5 µg/ml DNP-ascaris, 3 days, absorbance in absence of compound taken as 100%, read-out: Suppression Rate (%) MTT
Experimental: (§1) Method: Female Balb/c mice at 9 weeks of age (purchased from Shizuoka Laboratory Animal Center, Japan) were intraperitoneally administered 40 µg/mouse DNP-ascaris (2,4-dinitrophenylated ascaris extract, produced by LSL), together with Freund's complete adjuvant (FCA, produced by Difco, USA), and, 3 weeks later, splenocytes were collected. Splenocyte mixture was prepared from the spleens and suspended in RPMI-1640 medium (produced by Bio Whittaker, Inc., USA) containing inactivated fetal bovine serum (10% v/v, produced by Difco, USA), 2-mercaptoethanol (50 µM), L-glutamine (2 mM) and gentamicin (20 µg/ml) to yield a single cell suspension. After cell number was set to 3.3 × 10^6 cells/ml, DNP-ascaris was added to 96-well round-bottomed plates (produced by Sumitomo Bakelite Co., Ltd., Japan) containing a 25 µM test drug, at 12.5 µg/ml, and cultured at 37°C for 3 days in a 5% carbon dioxide incubator. After completion of cultivation, 3-(4,5-dimethylthiazol-2-yl)-2,5-diphenyl-tetrazolium bromide (MTT, produced by Dojin Kenkyujo, Japan) in PBS buffer was added to each well at 0.86 mg/ml, followed by cultivation in the carbon dioxide incubator for 6 hours. To this culture, a 10% SDS-0.01 N HCl mixture was added at 50 µl per well, followed by incubation in the carbon dioxide incubator for 18 hours, after which absorbance at 620 nm was determined.

IL-4 [2] = test: Ascaris-immunized mouse splenocytes (in vitro): IL-4 production, ELISA; format: cell-based, Balb/c mice; settings: Splenocyte, 72 h, 25 µM drug, 40 µg/ml DNP-ascaris, 3 days, production in absence of compound taken as 100%, read-out: Suppression Rate (%) IL-4
Experimental: as §1
Next, DNP-ascaris was added to a 1.2 × 10^6 cells/ml splenocyte suspension in each 96-well round-bottomed plate containing a drug (25 µM), at 40 µg/ml, and cultured at 37°C for 3 days in the 5% carbon dioxide incubator. After this culture was centrifuged at 200 x g for 5 minutes, the culture supernatant was collected, and, the amount of IL-4 produced in each supernatant was determined by ELISA [mouse IL-4 ELISA kit (produced by Endogen, USA)].

IL-4 [3] = test: Ascaris-immunized mouse splenocytes (in vivo dosing): IL-4 production, ELISA; set-up: species or system Balb/c mice; settings: 100 mg/kg/day orally 5 times weekly for 3 weeks; splenocytes cultured with 40 µg/ml DNP-ascaris 3 days; non-sensitized taken as 1 (sensitized 0.5% MC control 15.8)
Experimental: (§2) Method: Female Balb/c mice at 9 weeks of age (purchased from Shizuoka Laboratory Animal Center, Japan) were intraperitoneally administered 40 µg/mouse DNP-ascaris (2,4-dinitrophenylated ascaris extract, produced by LSL) together with Freund's complete adjuvant (FCA, produced by Difco, USA), 3 weeks later, splenocytes were collected. The compound 1((±)-7-(3,5,6-trimethyl-1,4-benzoquino-2-yl)-7-phenylheptonoic acid) was suspended in 0.5% methyl cellulose (MC) and orally administered at 100 mg/kg/day 5 times weekly for 3 weeks, starting at the day before DNP-ascaris administration. […] To this culture, a 10% SDS-0.01N HCl mixture was added at 50 µl per well, followed by incubation in the carbon dioxide incubator for 18 hours, after which absorbance at 620 nm was determined.
(§3) Next, DNP-ascaris was added to a 1.2 × 10^6 cells/ml splenocyte suspension in each 96-well round-bottomed plate at 40 µg/ml and cultured at 37°C for 3 days in the 5% carbon dioxide incubator. After this culture was centrifuged at 200 x g for 5 minutes, the culture supernatant was collected, and, the amounts of IL-4 and IL-5 produced in each supernatant were determined by ELISA [mouse IL-4 ELISA kit (produced by Endogen, USA); mouse IL-5 ELISA kit (produced by Endogen, USA)].

IL-5 [4] = test: Ovalbumin-immunized mouse splenocytes (oral dosing): IL-5 production, ELISA; format: in vivo, Balb/c mice; settings: 100 mg/kg orally for two weeks, 10 ug/ml OVA 3 days
Experimental: (§4) Method: Seven-week-old made Balb/c mice (Charles River Japan) were used. Mice were immunized i.p. with 1 ug ovalbumin (OVA, albumin chicken egg grade III; Sigma, USA) in aluminium hydroxide hydrate gel suspension (Alum, ISL Co., Ltd., Japan) twice at an unterval of a week. Two weeks after first immunization, spleens were asceptically removed, and single cell suspension was prepared in RPMI-1640 (Bio Whittaker, Inc., USA) containing 10% heat-inactivated fetal calf serum (FCS, Bio Whittaker, Inc., USA), 50 uM 2-mercaptoethanol, 2 mM L-glutamine, and 20 ug/ml gentamicin. Compound 1((+)-7-(3,5,6-trimethyl-1,4-benzoquino-2-yl)-7-phenylheptonoic acid) at 100 mg/kg suspended with 0.5% methyl cellulose (MC) was given orally in a volume of 10 ml/kg for two weeks from a day before first immunization. Splenocytes (3.3 × 10^6 cells) were cultured with 10 ug/ml OVA in 125-ml wells of a 96-well round-bottomed tissue culture plate (Sumitomo Bakelite Co., Ltd., Japan) and were kept in a humidified incubation at 37°C in 5% CO2 in air for three days.
(§5) To study the effect of the drug on the cytokine production, after centrifuged at 200×g for 5 minutes, the supernatant of the culture well was removed and its IL-4 and IL-5 contents were measured by ELISA kits (Endogen, USA).

IL-5 [5] = test: Ascaris-immunized mouse splenocytes (in vivo dosing): IL-5 production, ELISA; set-up: species or system Balb/c mice; settings: 100 mg/kg/day orally 5 times weekly for 3 weeks; splenocytes cultured with 40 µg/ml DNP-ascaris 3 days; non-sensitized taken as 1 (sensitized 0.5% MC control 43.3)
Experimental: as §2, §3

[6] = system: ovalbumin-immunized mouse splenocytes; test: Ovalbumin-immunized mouse splenocytes (oral dosing): OVA-specific growth response, MTT; format: in vivo, Balb/c mice; settings: 100 mg/kg orally for two weeks; splenocytes cultured with 10 ug/ml OVA 3 days; non-sensitized taken as 1 (sensitized 0.5% MC control 2.07)
Experimental: as §4, with “Splenocytes (3.3 × 10^6 cells) were cultured with 10 ug/ml OVA in 125-ml wells of a 96-well round-bottomed tissue culture plate (Sumitomo Bakelite Co., Ltd., Japan) and were kept in a humidified incubation at 37°C in 5% CO2 in air for three days.” left out
To study the effect of drug on the proliferation, 50 ul of 3 mg/ml 3(4,5-dimethylthiazol-2-yl)-2,5-diphenyltetrazolium bromide (MTT, Dojinedo Labs., Japan) resolved in phosphate buffered saline (PBS) was added into each well for final 6 hours of culture. The culture was completed by added 50 ul of 10% SDS resolved into 0.1 N HCl solution and after kept in 37°C for 18 hours, the absorbance at 620 nm was measured.

IL-4 [7] = test: Ovalbumin-immunized mouse splenocytes (oral dosing): IL-4 production, ELISA; format: in vivo, Balb/c mice; settings: 100 mg/kg orally for two weeks, 10 ug/ml OVA 3 days
Experimental: as §4, §5

IL-5 mRNA = IL-5 mRNA expression in ovalbumin-immunized mouse splenocytes (oral dosing), RT-PCR; format: in vivo, Balb/c mice; settings: 10 and 100 mg/kg orally for two weeks; splenocytes cultured with 10 ug/ml OVA for 4, 7 and 24 hours; Fig. 1
Experimental: Method: Eight-week-old male Balb/c mice (Charles River Japan) immunized i.p. with 1 ug OVA absorbed to 1 mg Alum twice at an unterval of a week. Two weeks after the first immunization, splenocytes were prepared in RPMI-1640 (BioWhittaker, Inc., USA) containing 10% heat-inactivated fetal bovine serum (FBS, Bio Whittaker, Inc., USA), 50 uM 2-mercaptoethanol, 2 mM L-glutamine, and 20 ug/ml gentamicin. Compound 1 ((±)-7-(3,5,6-trimethyl-1,4-benzoquino-2-yl)-7-phenylheptonoic acid) at 10 and 100 mg/kg suspended with 0.5% methyl cellulose (MC) was given orally in a volume of 20 ml/kg for two weeks from a day before first immunization. […] Following the heat inactivation at 95°C for 10 min, one fifth of the cDNA mixtures was amplified by Ex Taq DNA polymerase (Takara Shuzoh, Japan) with the appropriate oligonucleatide primers (mouse IL-5 and β-actin amplimer set (Clontech). A DNA Thermal Cycler (Perkin Elmer) was used for 50 DNA amplification cycles, with a denaturation step at 95°C for 1 min, an annealing step at 55°C for 2 min, and an extension step at 72°C for 3 min. Twenty percent of the amplified DNA was analyzed by electrophoresis in a 2% GTG agarose gel. After staining with ethidium bromide, the DNA band was photographed under UV light. The data of the negatives were analyzed by NIH Image 1.55 software. […]

[8] = system: ascaris-immunized mouse splenocytes; test: Ascaris-immunized mouse splenocytes (in vivo dosing): DNP-ascaris specific growth response, MTT; set-up: species or system Balb/c mice; settings: 100 mg/kg/day orally 5 times weekly for 3 weeks; splenocytes cultured with 12.5 µg/ml DNP-ascaris 3 days; absorbance of non-sensitized splenocytes taken as 1 (sensitized 0.5% MC control 5.52)
Experimental: Method: Female Balb/c mice at 9 weeks of age (purchased from Shizuoka Laboratory Animal Center, Japan) were intraperitoneally administered 40 µg/mouse DNP-ascaris (2,4-dinitrophenylated ascaris extract, produced by LSL) together with Freund's complete adjuvant (FCA, produced by Difco, USA), 3 weeks later, splenocytes were collected. The compound 1((±)-7-(3,5,6-trimethyl-1,4-benzoquino-2-yl)-7-phenylheptonoic acid) was suspended in 0.5% methyl cellulose (MC) and orally administered at 100 mg/kg/day 5 times weekly for 3 weeks, starting at the day before DNP-ascaris administration. After final oral administration, the splenocyte mixture was prepared from the spleens of 5 animals per group, and suspended in RPMI-1640 medium (produced by Bio Whittaker, Inc., USA) containing inactivated fetal bovine serum (10% v/v, produced by Difco, USA), 2-mercaptoethanol (50 µM), L-glutamine (2 mM) and gentamicin (20 µg/ml) to yield a single cell suspension. After cell number was set to 3.3 × 10^6 cells/ml, DNP-ascaris was added to 96-well round-bottomed plates (produced by Sumitomo Bakelite Co., Ltd., Japan) at 12.5 µg/ml, and cultured at 37°C for 3 days in an incubator containing 5% carbon dioxide. […] To this culture, a 10% SDS-0.01N HCl mixture was added at 50 µl per well, followed by incubation in the carbon dioxide incubator for 18 hours, after which absorbance at 620 nm was determined.

## CC1=C(C)C(=O)C(C(CCC(=O)O)c2ccccc2)=C(C)C1=O (stereo not drawn) [Compound 3]
[1]
  inhibition at 25 µM: 36%
IL-4 [2]
  inhibition at 25 µM: 38%

## COC1=C(OC)C(=O)C(C(CCCCCO)c2ccc(OC)cc2)=C(C)C1=O (stereo not drawn) [Compound 5]
[1]
  inhibition at 25 µM: 46%
IL-4 [2]
  inhibition at 25 µM: 80%

## CC1=C(C)C(=O)C(C(CCCCCC(=O)O)c2ccccc2)=C(C)C1=O (racemic) [Compound 1, (±)-7-(3,5,6-trimethyl-1,4-benzoquinon-2-yl)-7-phenylheptanoic acid]
IL-4 [3]
  Cytokine Production, Relative Value IL-4: 9.21
IL-5 [4]; Exp. 1, non-sensitized taken as 1 (sensitized 0.5% MC control 7.3)
  Cytokine Production, Relative Value Exp. 1 IL-5: 4.8
IL-5 [4]; Exp. 2, non-sensitized taken as 1 (sensitized 0.5% MC control 31.8)
  Cytokine Production, Relative Value Exp. 2 IL-5: 21.7
[1]
  inhibition at 25 µM: 44%
IL-5 [5]
  Cytokine Production, Relative Value IL-5: 13.6
[6]
  OVA-Specific Growth Response, Relative Value: 1.75
IL-4 [7]; Exp. 1, non-sensitized taken as 1 (sensitized 0.5% MC control 24.7)
  Cytokine Production, Relative Value Exp. 1 IL-4: 7.7
IL-4 [7]; Exp. 2, non-sensitized taken as 1 (sensitized 0.5% MC control 14.2)
  Cytokine Production, Relative Value Exp. 2 IL-4: 6.94
IL-4 [2]
  inhibition at 25 µM: 15%
IL-5 mRNA
  antigen-stimulated IL-5 mRNA expression (ratio to β-actin PCR product): inhibits antigen-stimulated IL-5 mRNA expression
[8]
  DNP-ascaris Specific Growth Response, Relative Value: 3.37

## CC1=C(C)C(=O)C(C(CCCCCCC(=O)O)c2ccccc2)=C(C)C1=O (stereo not drawn) [Compound 2]
[1]
  inhibition at 25 µM: 40%
IL-4 [2]
  inhibition at 25 µM: 38%

## CC1=C(C)C(=O)C(C(CCCCCCCCC(=O)O)c2ccccc2)=C(C)C1=O (stereo not drawn) [Compound 4]
[1]
  inhibition at 25 µM: 60%
IL-4 [2]
  inhibition at 25 µM: 87%

## COC1=C(OC)C(=O)C(C(CCCCCC(=O)O)c2ccc(C(C)C)cc2)=C(C)C1=O (stereo not drawn) [Compound 6]
[1]
  inhibition at 25 µM: 33%
IL-4 [2]
  inhibition at 25 µM: 57%

Source: EP0719552A2, “Pharmaceutical composition comprising a quinone derivative or a hydroquinone thereof for treating dermatitis” (Takeda Chemical Industries, Ltd., priority 1994, dated 1996)
